Some test systems named below: Bacillus subtilis 168; Escherichia coli JJ2489; Escherichia coli BW25113; Escherichia coli MC1041; Escherichia coli JW0013; Escherichia coli J2210; Vibrio cholerae; Escherichia coli MG1655; Vibrio harveyi; Vibrio alginolyticus; Micrococcus luteus; Vibrio campbellii; Escherichia coli; Vibrio parahaemolyticus.
Assay in all cases: ≥ marks a high value that may be exact or a test limit, other limits are often not marked, values filed in µg/mL are converted to µM
Assay [1] relates to Staphylococcus aureus UAMS-1.
Assay [2] deals with Candida glabrata ATCC 2001.
The subject of assay [3] is Staphylococcus aureus USA 400.
In assay [4] the test system is Klebsiella pneumoniae ATCC 13883.
In assay [5] the test system is Staphylococcus aureus Newman.
Assay [6] has as its system Staphylococcus epidermidis 1457.
The subject of assay [7] is Escherichia coli ATCC 25922.
The subject of assay [8] is Candida albicans ATCC 10231.
Assay [9] has as its system Staphylococcus aureus USA 200.
Assay [10] has as its system Staphylococcus aureus MU50.
Assay [11] concerns Staphylococcus aureus USA 300.
Assay [12] concerns Candida tropicalis ATCC 13803.
In assay [13] the test system is Pseudomonas aeruginosa PAO1.
The subject of assay [14] is Salmonella typhimurium SL1344.
Assay [15] concerns Escherichia coli JW0368 ΔsbmA.
The test system of assay [16] is Salmonella enterica subsp. enterica serovar Enteritidis MH91989.
Assay [17] relates to Escherichia coli JW2778 ΔygdD.
Assay [18] has as its system Pseudomonas aeruginosa ATCC 27853.
Assay [19] relates to Staphylococcus epidermidis ATCC 12228.
For assay [20], the system named is Escherichia coli CMCC 44102.
The test system of assay [21] is Staphylococcus aureus CMCC 26003.
Assay [22] deals with Enterococcus faecalis ATCC 29212.
Assay [23] concerns Staphylococcus aureus ATCC 43300.
Assay [24] relates to Staphylococcus aureus MTCC 9542.
The subject of assay [25] is Bacillus subtilis MTCC 14416.
In assay [26] the test system is Salmonella typhimurium KCTC 2370.
The test system of assay [27] is Escherichia coli KCTC 2223.
In assay [28] the test system is Micrococcus luteus ATCC 10240.
The subject of assay [29] is Staphylococcus aureus ATCC 15752.
Assay [30] relates to Staphylococcus epidermidis.

Data on 6 molecules can be found in DBAASP.

≈ marks a conversion by molar mass, not a printed value.

On to `CC[C@H](C)[C@H](NC(=O)CNC(=O)[C@H](CO)NC(=O)[C@@H](NC(=O)[C@H](CC(C)C)NC(=O)[C@H](CCCN=C(N)N)NC(=O)CNC(=O)[C@@H](NC(=O)[C@@H](NC(=O)[C@@H]1CCCN1C(=O)[C@H](CC(C)C)NC(=O)[C@@H](N)Cc1ccccc1)[C@@H](C)CC)C(C)C)[C@@H](C)CC)C(=O)N[C@@H](CC(C)C)C(N)=O` [FLPIVGRLISGIL], for which the MIC in [1] was 25 µM (≈ 34.9 µg/mL); in [2], not below 50 µM; in assay [3], 12.5 µM (≈ 17.5 µg/mL); in assay [4], not below 50 µM; in assay [5], 12.5 µM (≈ 17.5 µg/mL); in assay [6] it was 12.5 µM (≈ 17.5 µg/mL). The minimum inhibitory concentration (MIC) is more than 50 µM in [7]; 50 µM (≈ 69.8 µg/mL) in [8]; 25 µM (≈ 34.9 µg/mL) in assay [9]; 12.5 µM (≈ 17.5 µg/mL) in [10]; 12.5 µM (≈ 17.5 µg/mL) in assay [11]; not below 35.4 µM in the assay with Bacillus subtilis 168. The minimum inhibitory concentration (MIC) is 8.8 µM (≈ 12.3 µg/mL) in [12] and more than 50 µM in assay [13].
For `CC[C@H](C)[C@H](NC(=O)[C@H](Cc1ccc(O)cc1)NC(=O)[C@@H](NC(=O)[C@@H]1CCCN1C(=O)[C@H](CCCCN)NC(=O)[C@H](CC(N)=O)NC(=O)[C@H](CC(N)=O)NC(=O)CN)C(C)C)C(=O)N1CCC[C@H]1C(=O)N[C@@H](CCC(N)=O)C(=O)N1CCC[C@H]1C(=O)N[C@@H](CCCN=C(N)N)C(=O)N1CCC[C@H]1C(=O)N1CCC[C@H]1C(=O)N[C@@H](CCCN=C(N)N)C(=O)N1CCC[C@H]1C(=O)N[C@@H](CCCN=C(N)N)C(=O)N[C@@H](CC(C)C)C(=O)O` [GNNKPVYIPQPRPPRPRL], the MIC with Escherichia coli JJ2489 is 0.067 µM (≈ 0.141 µg/mL); against Escherichia coli BW25113 it was 0.048 µM (≈ 0.101 µg/mL); in [14], 0.126 µM (≈ 0.265 µg/mL); in assay [15], 0.384 µM (≈ 0.806 µg/mL); in [16], 0.067 µM (≈ 0.141 µg/mL); against Escherichia coli MC1041 it was 0.096 µM (≈ 0.202 µg/mL). Also, the values for the minimum inhibitory concentration (MIC) (against Escherichia coli JW0013; against Escherichia coli J2210; in assay [17]) were 0.048 µM (≈ 0.101 µg/mL), 0.133 µM (≈ 0.279 µg/mL) and 0.096 µM (≈ 0.202 µg/mL), respectively.
In the case of `CC[C@H](C)[C@H](NC(=O)[C@H](CCCN=C(N)N)NC(=O)[C@H](CCCN=C(N)N)NC(=O)[C@H](CC(C)C)NC(=O)[C@H](Cc1ccccc1)NC(=O)[C@@H]1CCCN1C(=O)[C@H](CCCN=C(N)N)NC(=O)[C@H](CCSC)NC(=O)[C@@H](NC(=O)[C@H](CCCCN)NC(=O)[C@H](CCCCN)NC(=O)[C@H](CS)NC(=O)[C@@H](NC(=O)CNC(=O)[C@H](CCCN=C(N)N)NC(=O)[C@H](CC(C)C)NC(=O)[C@@H](NC(=O)[C@@H](N)CCCCN)[C@@H](C)CC)C(C)C)[C@@H](C)CC)C(=O)N[C@@H](CO)C(=O)N[C@@H](CCCCN)C(=O)N[C@@H](CC(=O)O)C(=O)N[C@H](C(=O)N[C@@H](CC(C)C)C(=O)N[C@H](C(=O)NCC(=O)N[C@@H](CCCCN)C(=O)N[C@@H](CCCCN)C(N)=O)[C@@H](C)O)[C@@H](C)CC` [KILRGVCKKIMRPFLRRISKDILTGKK], the MIC in assay [18] came out at 16 µM (≈ 51.2 µg/mL); in assay [19], 4 µM (≈ 12.8 µg/mL); in [20], 4 µM (≈ 12.8 µg/mL); in [21], 4 µM (≈ 12.8 µg/mL).
Regarding `CC[C@H](C)[C@@H]1NC(=O)[C@H](CCCCN)NC(=O)[C@@H](NC(=O)[C@H](CC(C)C)NC(=O)[C@@H](NC(=O)[C@H](CCC(N)=O)NC(=O)[C@@H]2CCCN2C(=O)[C@H](CC(C)C)NC(=O)[C@H](Cc2ccccc2)NC(=O)[C@H](CC(N)=O)NC(=O)[C@H](C)NC(=O)[C@H](C)NC(=O)[C@@H](N)CC(C)C)[C@@H](C)CC)CSSC[C@@H](C(N)=O)NC(=O)[C@H](CCCCN)NC(=O)[C@H](CCCN=C(N)N)NC(=O)[C@H](C)NC1=O` [LAANFLPQILCKIARKC], the MIC was 52.6 µM (≈ 99.8 µg/mL) in assay [22]; 26.3 µM (≈ 49.9 µg/mL) in assay [23]; 3.23 µM (≈ 6.14 µg/mL) in [24]; 6.57 µM (≈ 12.5 µg/mL) with Vibrio cholerae; more than 52.6 µM in assay [18]; 6.57 µM (≈ 12.5 µg/mL) against Escherichia coli MG1655. This molecule gave a minimal inhibitory concentration (MIC) in [25] of 26.3 µM (≈ 49.9 µg/mL).
For `CC(C)C[C@H](NC(=O)[C@H](CCCCN)NC(=O)[C@H](CCC(N)=O)NC(=O)[C@H](CCCCN)NC(=O)[C@H](CC(C)C)NC(=O)[C@H](CC(C)C)NC(=O)[C@H](CCC(N)=O)NC(=O)[C@H](CC(C)C)NC(=O)[C@H](CC(C)C)NC(=O)[C@@H]1CCCN1C(=O)[C@H](CCCN=C(N)N)NC(=O)[C@H](CC(C)C)NC(=O)[C@H](CC(C)C)NC(=O)[C@H](CCCN=C(N)N)NC(=O)CNC(=O)CNC(=O)CNC(=O)[C@@H]1CCCN1C(=O)[C@@H]1CCCN1C(=O)CNC(=O)[C@H](CCCN=C(N)N)NC(=O)[C@@H](NC(=O)[C@H](CCCCN)NC(=O)[C@@H](N)CCCN=C(N)N)C(C)C)C(=O)N[C@@H](CCCN=C(N)N)C(=O)O` [RKVRGPPGGGRLLRPLLQLLKQKLR], the minimum inhibitory concentration (MIC) turned out to be 4 µM (≈ 11.4 µg/mL) in assay [26], 2 µM (≈ 5.7 µg/mL) in [27], 0.5 µM (≈ 1.43 µg/mL) in assay [28] and 2 µM (≈ 5.7 µg/mL) in assay [29].
Turning to `CC[C@H](C)[C@H](NC(=O)[C@H](Cc1ccccc1)NC(=O)[C@H](Cc1ccc(O)cc1)NC(=O)[C@@H]1CCCN1C(=O)[C@H](CCCN=C(N)N)NC(=O)[C@@H](NC(=O)[C@H](CO)NC(=O)[C@H](Cc1ccc(O)cc1)NC(=O)[C@H](CO)NC(=O)[C@H](CS)NC(=O)[C@H](Cc1ccc(O)cc1)NC(C)=O)[C@@H](C)O)C(=O)N[C@@H](CCCN=C(N)N)C(=O)N[C@@H](Cc1c[nH]c2ccccc12)C(=O)N[C@@H](CCC(N)=O)C(=O)N[C@@H](CC(C)C)C(=O)N[C@@H](CCCCN)C(=O)N[C@@H](Cc1ccccc1)C(=O)N[C@@H](CCCCN)C(=O)N[C@H](C(=O)N[C@@H](CCCCN)C(=O)N[C@H](C(=O)N[C@@H](Cc1c[nH]c2ccccc12)C(=O)N[C@@H](CS)C(=O)N1CCC[C@H]1C(N)=O)[C@@H](C)CC)[C@@H](C)O` [YCSYSTRPYFIRWQLKFKTKIWCP], the MIC is not below 64 µM against Vibrio harveyi; not below 64 µM with Vibrio alginolyticus; not below 64 µM with Micrococcus luteus; not below 64 µM in the assay with Vibrio campbellii; not below 64 µM in assay [30]; more than 64 µM with Escherichia coli. Also, the MIC with Vibrio parahaemolyticus was not below 64 µM.

As usually defined, the MIC is the smallest concentration in the dilution series that meets the test's criterion for growth inhibition.
